Assay results as given in PubChem BioAssay (NCI).
Values joined by “and” are separate entries in the source; they are usually repeats but may differ in a detail not shown here. Equal entries are not always repeated.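 These data come from cells grown in 96-well plates and exposed to compound for 48 hours at five concentrations. GI50 = concentration required for 50% inhibition of growth. TGI: concentration producing complete growth inhibition.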

How the values were obtained:
Test in all cases: inhibition of tumour cell growth, NCI panel, 48 h
A549 NSCLC = test system: A549 NSCLC
COLO 205 colon = test system: COLO 205 colon
HT29 colon = test system: HT29 colon
KM12 colon = test system: KM12 colon
NCI-H23 lung = test system: NCI-H23 lung
OVCAR-3 ovarian = test system: OVCAR-3 ovarian
SN12C renal = test system: SN12C renal
SW-620 colon = test system: SW-620 colon
T-47D breast = test system: T-47D breast
TK-10 renal = test system: TK-10 renal

SMILES | GI50 (A549 NSCLC) | TGI (A549 NSCLC) | GI50 (COLO 205 colon) | TGI (COLO 205 colon) | GI50 (HT29 colon) | TGI (HT29 colon) | GI50 (KM12 colon) | TGI (KM12 colon) | GI50 (NCI-H23 lung) | TGI (NCI-H23 lung) | GI50 (OVCAR-3 ovarian) | TGI (OVCAR-3 ovarian) | GI50 (SN12C renal) | TGI (SN12C renal) | GI50 (SW-620 colon) | TGI (SW-620 colon) | GI50 (T-47D breast) | TGI (T-47D breast) | GI50 (TK-10 renal) | TGI (TK-10 renal)
COc1cc(Nc2nc3ccccc3cc2C(=O)Nc2ccc(F)c(F)c2)cc(OC)c1OC | 3.08 µM | > 100 µM | 1.77 µM | 3.78 µM | 3.59 µM | > 100 µM | 2.89 µM | 16 µM | 2.84 µM | 8.51 µM | 2.56 µM | 6.96 µM | 3.43 µM | > 100 µM | 3.53 µM | > 100 µM | 1.84 µM | 6.39 µM | 4.52 µM | > 100 µM
O=C(OCc1ncc(-c2ccc(C(F)(F)F)cc2)c(NC2CCCCCC2)n1)c1c(F)c(F)c(F)c(F)c1F | 18.2 µM | 51.4 µM | 18 µM | 37.8 µM | 13.8 µM | 40 µM | 18.1 µM | 42.5 µM | 10.6 µM | 28 µM | 4.09 µM | 13.8 µM | 12.1 µM | 28 µM | 7.21 µM | 26.6 µM | 1.97 µM | 3.99 µM | 21.5 µM | 37 µM
OCC(O)c1nc2ccc3[nH]ncc3c2c2c1CCCC2 (stereo not given) | 1.67 µM | > 50 µM | 1.23 µM | 3.43 µM | 1.27 µM | > 50 µM | 1.62 µM | > 50 µM | 1.07 µM | 2.46 µM | 1.67 µM | > 50 µM | 1.56 µM | > 50 µM | 1.3 µM | > 50 µM | 1.6 µM | > 50 µM | 1.42 µM | > 50 µM
Cc1nc(N2CCC3(CC2)CO[C@@H](C)[C@H]3N)c(CO)nc1Sc1ccnc(N)c1Cl | > 100 µM | > 100 µM | > 73.4 µM | > 100 µM | > 100 µM | > 100 µM | 2.21 µM | > 100 µM | 0.329 µM | > 100 µM | > 85.3 µM | > 100 µM | 12.2 µM | > 100 µM | > 100 µM | > 100 µM | 32.4 µM | > 100 µM | 0.336 µM | > 100 µM
CCCC(CCC)C(=O)OCC1(CO)C/C(=C\c2ccc(F)cc2)C(=O)O1 (stereo not given) | 3.66 µM | 21.5 µM | 0.545 µM | 8.74 µM | 13.6 µM | 27.3 µM | 13.9 µM | 27.5 µM | 12.4 µM | 26.7 µM | 17.1 µM | 31.2 µM | 12.4 µM | 26.4 µM | 6.93 µM | 20.7 µM | 13.2 µM | 30.1 µM | 6.06 µM | 23.6 µM
O=Cc1cccc2c1Oc1c(cccc1C(=O)O)S2 | – | > 100 µM | – | 55.6 µM | – | > 100 µM | – | 44.3 µM | – | > 100 µM | – | > 100 µM | – | > 100 µM | – | > 100 µM | – | > 100 µM | – | > 100 µM
O=C(/C=C/c1ccccc1)n1c(-c2ccc(Cl)cc2)nc2ccccc21 | 1.89 µM | 7.3 µM | 1.41 µM | 2.78 µM | 1.51 µM | 3.71 µM | 1.44 µM | 2.93 µM | 1.91 µM | 4.89 µM | 1.11 µM | 2.64 µM | 1.39 µM | 2.76 µM | 1.45 µM | 5.03 µM | 1.73 µM | 7.68 µM | 2.35 µM | 7.93 µM
O=C(O)C(Cl)(c1ccccc1)c1ccccc1 | – | > 100 µM | – | > 100 µM | – | > 100 µM | – | > 100 µM | – | > 100 µM | – | > 100 µM | – | > 100 µM | – | > 100 µM | – | > 100 µM | – | > 100 µM
COc1ccc2c(c1)CC[C@H](O)/C2=C/c1cc(OC)c(OC)c(OC)c1 | 0.245 µM | > 100 µM | 0.106 µM | 0.639 µM | 0.107 µM | > 100 µM | 0.093 µM | > 100 µM | 0.162 µM | > 100 µM | 0.0757 µM | > 100 µM | 0.998 µM | > 100 µM | 0.0739 µM | > 100 µM | 0.0354 µM | 52.8 µM | 34.4 µM | > 100 µM
Cc1cccc(C)c1NC(=O)Nc1ccc(S(N)(=O)=O)cc1 | – | > 100 µM | – | > 100 µM | – | > 100 µM | – | > 100 µM | – | > 100 µM | – | > 100 µM | – | > 100 µM | – | > 100 µM | – | > 100 µM | – | > 100 µM
N#CC1=C(N)NC(N2CCOCC2)=NC12Nc1ccccc1N2 | 39.8 µM | > 100 µM | 24.1 µM | > 100 µM | 32.6 µM | > 100 µM | > 100 µM | > 100 µM | 21.9 µM | > 100 µM | 20.2 µM | 70.7 µM | 30.1 µM | > 100 µM | 26.7 µM | > 100 µM | 59.1 µM | > 100 µM | 10.7 µM | 46.6 µM
Cn1c2ccc(Br)cc2c2c3c(c4c5ccccc5[nH]c4c21)C(=O)N(O)C3=O | 0.63 µM | 2.49 µM | 0.231 µM | 0.73 µM | 0.23 µM | 0.658 µM | 0.237 µM | 0.902 µM | 0.0872 µM | 0.398 µM | 0.191 µM | 0.452 µM | 0.0814 µM | 0.445 µM | 0.0787 µM | 0.394 µM | 0.109 µM | 0.737 µM | 0.655 µM | 1.42 µM
CNC(=O)Cc1nc(-c2cccc(NS(=O)(=O)c3c(F)cccc3F)c2F)c(-c2ccnc(Nc3ccccc3)n2)s1 | 8.53 µM | > 50 µM | 0.0188 µM | > 30.2 µM | 0.0327 µM | > 50 µM | 14.2 µM | > 50 µM | 4.42 µM | > 50 µM | 12.9 µM | > 50 µM | 1.71 µM | > 50 µM | 9.54 µM | > 50 µM | 6.23 µM | > 41.1 µM | 3.02 µM | > 40.7 µM
CC[N+]1(C)CCC(O)(c2ccc(OC)cc2)C(C(=O)c2ccc(OC)cc2)C1 (stereo not given) | – | 41.3 µM | – | 10.6 µM | – | 15.7 µM | – | 31.2 µM | – | 36.8 µM | – | 22.1 µM | – | 32.9 µM | – | 4.82 µM | – | 33.8 µM | – | 20.4 µM
CN/N=C(\C)C(CN(C)C)C(c1ccccc1)c1c(O)c2ccccc2oc1=O (stereo not given) | – | > 100 µM | – | > 100 µM | – | > 100 µM | – | > 100 µM | – | > 100 µM | – | > 100 µM | – | > 100 µM | – | > 100 µM | – | > 100 µM | – | > 100 µM
COc1ccc(C(=O)c2cc3c(N)c(C(=O)Nc4ccc(C)cc4)sc3nc2C)cc1 | 3.96 µM | > 100 µM | 3.47 µM | > 100 µM | 2.74 µM | 15.2 µM | 2.44 µM | > 100 µM | 6.24 µM | 44 µM | 2.25 µM | 7.18 µM | 6.93 µM | > 100 µM | 3.61 µM | > 100 µM | 4.78 µM | 91.7 µM | 6.81 µM | 25.2 µM
O=C1C=CC(=O)c2cc(Sc3ccccc3)c(=O)ccc21 | – | 39.5 µM | – | 24.9 µM | – | 41.6 µM | – | 34.4 µM | – | 37 µM | – | 43.2 µM | – | 33.9 µM | – | 11.7 µM | – | 12.5 µM | – | 32.2 µM
O=C1/C(=C\c2ccccn2)c2ccccc2N1c1c(Cl)cccc1Cl | 2.29 µM | 14.6 µM | 2.04 µM | 4.81 µM | 2.53 µM | 5.75 µM | 1.69 µM | 3.22 µM | 3.29 µM | 15.3 µM | 1.66 µM | 3.25 µM | 2.65 µM | 12.5 µM | 1.89 µM | 3.69 µM | 2.6 µM | 9.66 µM | 3.39 µM | 12.7 µM
Cc1sc2c(c1C)C(c1ccc(Cl)cc1)=N[C@@H](CC(=O)OC(C)(C)C)c1nnc(C)n1-2 | 0.73 µM and 0.312 µM | 21.8 µM and 15.3 µM | 0.378 µM and 0.143 µM | 11.7 µM and 3.8 µM | 0.209 µM and 0.0986 µM | 14.9 µM | 2.57 µM and 0.962 µM | 23.1 µM and 20.1 µM | 0.45 µM and 0.28 µM | 18.7 µM and 18.6 µM | 1.24 µM and 0.498 µM | 18 µM and 15.6 µM | 8.65 µM and 1.95 µM | 25.9 µM and 22 µM | 10.9 µM and 4.09 µM | 28.1 µM and 22.9 µM | 0.342 µM and 0.214 µM | 18.8 µM and 19 µM | 0.154 µM and 0.0583 µM | 12.7 µM and 13.4 µM
CCCCCCCCCCCCCCCCCC(=O)OCC(COC(=O)CCCN)OC(=O)CCCN (stereo not given) | – | 16.4 µM | – | 31.1 µM | – | 33.5 µM | – | 33.5 µM | – | 31.9 µM | – | 35.3 µM | – | 31.6 µM | – | 38.2 µM | – | 40 µM | – | 36.7 µM
COc1ccc(OC)c2c1[nH]c(=O)c1c3ncccc3cn21 | 2.83 µM | 15.3 µM | 2.79 µM | > 100 µM | 1.49 µM | 4.34 µM | 4.23 µM | > 100 µM | 3.58 µM | > 100 µM | 4.54 µM | 18.4 µM | 4.48 µM | > 100 µM | 1.55 µM | 5.38 µM | 3.54 µM | > 100 µM | 4.07 µM | 13.6 µM
